The values that follow come from US20230115176A1 (Ra Pharmaceuticals, Inc., priority 2019, published 2023).

In data set [1] the target is T1, Human C5 (Homo sapiens, UniProt P01031).
T1 construct: purchased Complement Technology
The data set can be described thus: Surface plasmon resonance (SPR), immobilized human C5 (Example 9, Table 18). Format: binding. The note with it: immobilized human C5, equilibrium dissociation constant; read-out: SPR C5 EQ KD. The text has this:
Morrison and Boyd in “Organic Chemistry”, 6th edition, Prentice Hall (1992)] and validated for proper structure by mass spectrometry.

For another data set, the target named is purified human C5 (Homo sapiens, UniProt P01031). Kind of data set: Red blood cell (RBC) hemolysis assay, optical, absorbance 412 nm (Example 10, Table 19). The class given is cell-based. To be noted: antibody-sensitized sheep erythrocytes, […] human C5 depleted sera.
In data set [2] the target is T1, Human C5. Kind of data set: Red blood cell (RBC) hemolysis assay, luminescent (Example 28, Table 32). Format: cell-based. The note with it: sheep EA cells, 1.5% C5-depleted human serum, 0.5 nM human C5, 1 hour at 37° C., luminescence (Table 32).
The nature of data set [3]: Kinetic solubility in PBS pH 7.4, HPLC-UV (Example 21, Table 27). Format: physicochemical. The note with it: phosphate buffered saline, aqueous buffer, kinetic from dmso stock, 0.5 M PBS, shaken minimum 24 h at approximately 25° C., HPLC-UV 270 nm. Here is the method: Compounds were analyzed for kinetic solubility values using a standard kinetic solubility assay format. First, test compounds were dissolved in DMSO (Aldrich Chemical Co., Milwaukee, Wis., USA) at a concentration of 0.010 mol/L and used to prepare standard calibrators in DMSO solution. 500.0 μM, 250.0 μM, 125.0 μM, 62.5 μM, 31.2 μM, and 15.6 μM standards were prepared in a Greiner UV-Star clear V-bottom 96-well plate (Greiner-Bio One, Germany) for generating a standard curve. Using Alfa Aesar's Sodium phosphate, 0.2 M buffer solution, pH 7.4 (Alfa Aesar, Haverhill, Mass., USA), aqueous phosphate buffered saline (PBS) was prepared by diluting with Milli-Q water for a final concentration of 0.05 M. The pH of the solution was adjusted to 7.4±0.1 using 0.1 M hydrochloric acid (Fisher Scientific Waltham, Mass., USA) or 0.1 M aqueous sodium hydroxide (Fisher Scientific Waltham, Mass., USA).
10 μL of 0.010 mol/L DMSO test compound stock solutions were pipetted to separate 1.5 mL centrifuge tubes in triplicate. To these tubes, 190 μl of 0.05 M PBS was added. Each tube was gently vortexed for 5 sec. The tubes were shaken for a minimum of 24 h at approximately 25° C. After shaking, the solutions were transferred to 0.5 mL centrifuge filter tubes (MilliporeSigma, Burlington, Mass., USA) and centrifuged at 10,000 rpm for 5 min. After centrifugation, supernatants were collected and used for compound concentration analysis.
Compound concentrations in each solution were determined using high pressure liquid chromatography (HPLC) with ultraviolet (UV) detection and comparison with external standards. For HPLC, a Waters Acquity CSH Phenyl-Hexyl column (2.1 mm×50 mm, 1.7 μm) was used together with a generic gradient method on a Waters H-class system equipped with a diode array detector: Solvent A=0.1% formic acid in water, Solvent B=0.1% formic acid in acetonitrile (MilliporeSigma, Burlington, Mass., USA), flow=0.65 mL/min, (t=0 min: 95% A-5% B, t=4.75 min: 0% A-100% B, t=4.85 min: 0% A-100% B, t=4.86 min: 95% A-5% B, t=5 min: 95% A-5% B). UV quantifications were performed at 270 nm. Solution concentrations were calculated using Microsoft Excel.

Where [4] appears, read: 0.5 nM purified human C5, absorbance 412 nm, read-out: RBC Hemolysis IC50.

Converted amounts (≈) assume the structure as drawn. Read-outs that look alike come from different tables or passages of the source.

Sequence of purified human C5 (P01031 19-1676): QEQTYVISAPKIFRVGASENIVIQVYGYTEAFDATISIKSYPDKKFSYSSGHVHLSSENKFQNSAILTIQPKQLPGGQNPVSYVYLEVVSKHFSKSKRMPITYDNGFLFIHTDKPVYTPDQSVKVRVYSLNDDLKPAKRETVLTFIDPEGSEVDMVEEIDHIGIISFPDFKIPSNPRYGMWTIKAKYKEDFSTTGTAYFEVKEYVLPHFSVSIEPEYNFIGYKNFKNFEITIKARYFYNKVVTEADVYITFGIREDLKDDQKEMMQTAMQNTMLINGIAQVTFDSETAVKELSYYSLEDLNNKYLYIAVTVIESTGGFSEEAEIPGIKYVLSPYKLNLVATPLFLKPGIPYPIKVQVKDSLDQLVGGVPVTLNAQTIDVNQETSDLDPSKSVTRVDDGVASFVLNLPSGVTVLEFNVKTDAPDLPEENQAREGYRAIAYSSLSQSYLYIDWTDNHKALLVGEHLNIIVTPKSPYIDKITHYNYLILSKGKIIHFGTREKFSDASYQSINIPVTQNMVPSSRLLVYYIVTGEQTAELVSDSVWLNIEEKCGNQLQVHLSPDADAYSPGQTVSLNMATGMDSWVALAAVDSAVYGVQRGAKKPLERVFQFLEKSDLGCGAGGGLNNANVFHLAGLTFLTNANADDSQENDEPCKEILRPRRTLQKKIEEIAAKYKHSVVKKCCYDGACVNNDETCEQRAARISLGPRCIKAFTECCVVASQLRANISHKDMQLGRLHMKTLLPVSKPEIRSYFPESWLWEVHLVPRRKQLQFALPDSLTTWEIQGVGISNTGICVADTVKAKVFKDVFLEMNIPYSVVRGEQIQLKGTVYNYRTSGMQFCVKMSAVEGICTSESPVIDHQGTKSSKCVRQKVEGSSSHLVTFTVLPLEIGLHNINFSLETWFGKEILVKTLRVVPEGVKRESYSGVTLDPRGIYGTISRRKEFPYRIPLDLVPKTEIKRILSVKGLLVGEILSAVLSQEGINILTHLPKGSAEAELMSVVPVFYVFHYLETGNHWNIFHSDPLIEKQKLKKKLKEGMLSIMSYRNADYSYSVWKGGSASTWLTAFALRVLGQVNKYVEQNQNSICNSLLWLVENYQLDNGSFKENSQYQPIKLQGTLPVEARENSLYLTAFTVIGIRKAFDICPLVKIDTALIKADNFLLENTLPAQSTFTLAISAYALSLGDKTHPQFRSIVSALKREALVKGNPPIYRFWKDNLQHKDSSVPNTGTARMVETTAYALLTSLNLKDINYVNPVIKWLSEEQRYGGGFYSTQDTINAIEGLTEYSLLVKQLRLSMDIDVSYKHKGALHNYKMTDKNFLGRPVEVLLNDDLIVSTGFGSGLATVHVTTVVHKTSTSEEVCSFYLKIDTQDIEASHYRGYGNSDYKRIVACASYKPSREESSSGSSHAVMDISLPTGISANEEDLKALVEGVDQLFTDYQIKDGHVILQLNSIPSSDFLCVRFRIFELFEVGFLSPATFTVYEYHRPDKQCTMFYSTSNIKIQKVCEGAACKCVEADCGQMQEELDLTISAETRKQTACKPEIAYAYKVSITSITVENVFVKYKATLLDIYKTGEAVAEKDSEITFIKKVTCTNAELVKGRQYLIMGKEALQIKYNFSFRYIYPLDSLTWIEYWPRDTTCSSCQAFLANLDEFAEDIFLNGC
T1 sequence (P01031 19-1676): as above

With `COc1ccc(OC)c(CNC(=O)Nc2ccc(OC)c(OCCCC(C)C)c2)c1` [Compound C5INH-0296], the Kd on Human C5 [1] was determined as 20 nM. The 50% inhibitory concentration (IC50) at purified human C5 (setting [4]) turned out to be 680 nM.

As for `COc1cc(F)ccc1CNC(=O)Nc1ccc(OC)c(OCCCC(C)C)c1` [Compound C5INH-0298], the Kd at Human C5 [1] is 550 nM. The IC50 at purified human C5 (setting [4]) came to 269 nM. The corresponding values for `COc1ccc(NC(=O)NCc2cccc(C(=N)N)c2)cc1OCCCC(C)C` [Compound C5INH-0303] are 710 nM and 2940 nM. For `COc1ccc(NC(=O)NCc2cccnc2OC)cc1OCCCC(C)C` [Compound C5INH-0310], in that order: 40 nM and 203 nM. Take `COc1ccc(NC(=O)NCc2ccc(O)cc2O)cc1OCCCC(C)C` [Compound C5INH-0311]: the Kd at Human C5 [1] was 20 nM. The IC50 at purified human C5 (setting [4]) stood at 27 nM. As to `COc1ccc(NC(=O)NC(CO)c2cc(F)ccc2O)cc1OCCCC(C)C` (stereo not shown) [Compound C5INH-0315], at Human C5 [1], the Kd is 50 nM. Moreover, the concentration for half-maximal inhibition (IC50) on purified human C5 (0.5 nM human C5, read-out: IC50) is less than 20 nM; at purified human C5 (setting [4]) it was 13.7 nM. With `COc1ccc(NC(=O)NC(CO)c2cccnc2OC)cc1OCCCC(C)C` (stereo not shown) [Compound C5INH-0316], the Kd at Human C5 [1] stood at 58 nM. Also, at purified human C5 (setting [4]), the IC50 worked out at 60 nM. For `COc1ccc(NC(=O)NCc2cccc3nc[nH]c23)cc1OCCCC(C)C` [Compound C5INH-0317], in that order: 190 nM and 319 nM.

For `COc1ccc(NC(=O)NCc2ccc(OCCN(C)C)cc2)cc1OCCCC(C)C` [Compound C5INH-0318], the dissociation constant (Kd) on Human C5 [1] stood at 313 nM. Moreover, the half-maximal inhibitory concentration (IC50) on purified human C5 (setting [4]) was 251 nM.

As to `COc1ccc(NC(=O)NCc2cccc(CN3CCCC3=O)c2)cc1OCCCC(C)C` [Compound C5INH-0323], the Kd on Human C5 [1] came out at 731 nM. Moreover, the IC50 on purified human C5 (setting [4]) was 1920 nM. For `COc1ccc(NC(=O)NCc2c(F)cccc2OC)cc1OCCCC(C)C` [Compound C5INH-0326], in that order: 260 nM and 784 nM. For `COc1ccc(NC(=O)NCc2cncs2)cc1OCCCC(C)C` [Compound C5INH-0329], in that order: 3200 nM and 4010 nM. The corresponding values for `COc1ccc(NC(=O)NCc2ccc3c(c2)OCO3)cc1OCCCC(C)C` [Compound C5INH-0330] are 2900 nM and 2660 nM. In the case of `COc1ccc(NC(=O)NCc2ccnc(N)c2)cc1OCCCC(C)C` [Compound C5INH-0333], the Kd on Human C5 [1] stood at 98 nM. In addition, at purified human C5 (setting [4]), the half-inhibitory concentration (IC50) was found to be 442 nM. Consider `COCCOc1ccccc1CNC(=O)Nc1ccc(OC)c(OCCCC(C)C)c1` [Compound C5INH-0335], for which the Kd at Human C5 [1] amounted to 180 nM. Also, on purified human C5 (setting [4]), the half-maximal inhibitory concentration (IC50) worked out at 2090 nM. For `COc1ccc(NC(=O)N[C@@H](CO)c2ccccc2)cc1NCCCC(C)C` [Compound C5INH-0336], in that order: 164 nM and 473 nM. On to `CCCCCOc1cc(N2CC[C@H](C)N(Cc3ccnc4c3c(Cl)cn4CC(=O)N3CCO[C@H](COC)C3)C2=O)ccc1OC` [SC0127], for which the IC50 against Human C5 [2] turned out to be 1.7 nM. Besides, the kinetic solubility in data set [3] was less than 10 µM. The corresponding values for `COc1cc(CC(=O)N2CCN(C)CC2)ccc1CN1C(=O)N(c2ccc(OC)c(OCCCC3CC3)c2)CC[C@@H]1C` [SC0137] are 1.8 nM and 275 µM (≈ 159 µg/mL). For `COc1cc(CC(=O)N2CCNC(=O)C2)ccc1CN1CC(C)CN(c2ccc(OC)c(OCCCC3CC3)c2)C1=O` (stereo not shown) [SC0158], in that order: 2.7 nM and 16 µM (≈ 9.26 µg/mL). Compound `COc1cc(CCN2CCS(=O)(=O)CC2)ccc1CN1C(=O)N(c2ccc(OC)c(OCCCC3CC3)c2)CC[C@@H]1C` [SC0162] yielded a 50% inhibitory concentration (IC50) against Human C5 [2] of 2.8 nM. Moreover, in data set [3], the solubility (kinetic) is less than 10 µM. For `CCCCCOc1cc(N2CC[C@@H](C)N(Cc3cccc4[nH]cc(Cl)c34)C2=O)ccc1OC` [SC0167], in that order: 3.2 nM and less than 10 µM.

With `CCCCCOc1cc(N2CC(C(N)=O)CN(Cc3ccc(CC(=O)N(C)C)cc3OC)C2=O)ccc1OC` (stereo not shown) [SC0204], half-maximal inhibition against Human C5 [2] (IC50) was put at 10.9 nM. The same compound gave a kinetic solubility in data set [3] of 465 µM (≈ 251 µg/mL). The compound `COc1ccc(N2CC[C@H](C)N(Cc3cccc4c3ccn4CC(=O)N(C)C)C2=O)cc1OCCCC1CCC1` [SC0205] yielded an IC50 on Human C5 [2] of 11.4 nM. Still for that read-out and setting: with `CCCCCOc1cc(N2C[C@@H](CO)CN(Cc3ccc(CC(=O)N(C)C)cc3OC)C2=O)ccc1OC` [SC0206] the figure was 11.7 nM; with `CCCCCOc1cc(N2C[C@H](C)CN(Cc3ccc(CC(=O)N4CCCC4)cc3OC)C2=O)ccc1OC` [SC0207], 11.8 nM; with `COc1ccc(N2CC[C@H](C)N(Cc3ccnc4c3ccn4CC(=O)N(C)C)C2=O)cc1OCCCC1CC1` [SC0208], 12.6 nM.

In the case of `CCCCCOc1cc(N2C[C@H](C)CN(Cc3ccc(CC(=O)N(C)C)cc3OC)C2=O)ccc1OC` [SC0209], the concentration for half-maximal inhibition (IC50) on Human C5 [2] came to 12.6 nM.

As for `CCCCCOc1cc(N2C[C@@H](C)CN(Cc3ccc(CC(=O)N(C)C)cc3OC)C2=O)ccc1OC` [SC0210], on Human C5 [2], the IC50 worked out at 15.1 nM. Still for that read-out and setting: under `CCCCCOc1cc(N2CC[C@@H](C)N(Cc3cccc4c3ccn4CC(=O)OCC)C2=O)ccc1OC` [SC0211] stands 15.6 nM; under `CCCCCOc1cc(N2C[C@@H](C)CN(Cc3ccc(CC(=O)N4CCCC4)cc3OC)C2=O)ccc1OC` [SC0212], 16.5 nM. The same measure, in the same setting: under `CCCCCOc1cc(N2C[C@@H](C(N)=O)CN(Cc3cc(F)ccc3OC)C2=O)ccc1OC` [SC0213] stands 18.2 nM. With `CCCCCOc1cc(N2CC[C@@H](C)N(Cc3cccc4[nH]ccc34)C2=O)ccc1OC` [SC0214], the midpoint of inhibition at Human C5 [2], the IC50, lay at 18.2 nM. On the same count and under the same terms, with `CCCCCOc1cc(N2C[C@H](C(N)=O)CN(Cc3cc(F)ccc3OC)C2=O)ccc1OC` [SC0215] the figure was 18.6 nM. Still for that read-out and setting: with `COc1cc(CC(=O)N[C@H]2CCN(C(=O)OC(C)(C)C)C2)ccc1CN1C(=O)N(c2ccc(OC)c(OCCCC3CC3)c2)CC[C@@H]1C` [SC0216] the figure was 19.6 nM. Still for that read-out and setting: with `CCCCCOc1cc(N2C[C@H](C(=O)NC)CN(Cc3cc(F)ccc3OC)C2=O)ccc1OC` [SC0217] the figure was 25.3 nM; with `CCCCCOc1cc(N2CC[C@H](C)N(Cc3cccc4c3cc(C)n4CC(=O)N(C)C)C2=O)ccc1OC` [SC0218], 34.4 nM; with `CCCCCOc1cc(N2CC[C@H](C)N(Cc3ccnc4[nH]ccc34)C2=O)ccc1OC` [SC0219], 40 nM. With `CCCCCOc1cc(N2CC(C)(C)CN(Cc3ccc(CC(=O)N(C)C)cc3OC)C2=O)ccc1OC` [SC0220], the half-inhibitory concentration (IC50) on Human C5 [2] was determined as 42.1 nM.

As to `COc1cc(CC(=O)O)ccc1CN1CC(C)CN(c2ccc(OC)c(OCCCC3CC3)c2)C1=O` (stereo not shown) [SC0221], the concentration for half-maximal inhibition (IC50) against Human C5 [2] worked out at 54.4 nM. On the same count and under the same terms, under `CCCCCOc1cc(N2CC(CO)CN(Cc3ccc(CC(=O)O)cc3OC)C2=O)ccc1OC` (stereo not shown) [SC0222] stands 74.1 nM. The same measure, in the same setting: with `CCCCCOc1cc(N2C[C@@H](C(=O)NC)CN(Cc3cc(F)ccc3OC)C2=O)ccc1OC` [SC0223] the figure was 96.9 nM; with `CCCCCOc1cc(N2CC(CO)CN(Cc3ccc(C#N)cc3OC)C2=O)ccc1OC` (stereo not shown) [SC0224], 98.5 nM; with `COc1ccc(N2CC[C@H](C)N(Cc3cccc4c3ccn4S(=O)(=O)c3ccc(C)cc3)C2=O)cc1OCCCC1CC1` [SC0225], 110 nM. `C=C1CN(Cc2ccc(C#N)cc2OC)C(=O)N(c2ccc(OC)c(OCCCCC)c2)C1` [SC0226]: 132 nM corresponded to half-maximal inhibition on Human C5 [2] (IC50).

`CCCCCOc1cc(N2CC[C@@H](C)N(Cc3cccc4c3ccn4CC(=O)O)C2=O)ccc1OC` [SC0227]: the IC50 against Human C5 [2] amounted to 135 nM.

Consider `CCCCCOc1cc(N2CC(C)CN(Cc3ccc(C#N)cc3OC)C2=O)ccc1OC` (stereo not shown) [SC0228], for which, at Human C5 [2], the IC50 was determined as 211 nM.

For `CCCCCOc1cc(N2CC(COCc3ccccc3)CN(Cc3ccc(CC(=O)O)cc3OC)C2=O)ccc1OC` (stereo not shown) [SC0229], on Human C5 [2], the 50% inhibitory concentration (IC50) was determined as 371 nM. Consider `CCCCCOc1cc(N2CC[C@@H](C)N(Cc3cccc4c3ccn4S(=O)(=O)c3ccc(C)cc3)C2=O)ccc1OC` [SC0230], for which 703 nM corresponded to half-maximal inhibition at Human C5 [2] (IC50). Still for that read-out and setting: under `CCCCCOc1cc(N2CC[C@@H](C)NC2=O)ccc1OC` [SC0231] stands 2660 nM; under `CCCCCOc1cc(N2CC(COCc3ccccc3)CN(Cc3ccc(Br)cc3OC)C2=O)ccc1OC` (stereo not shown) [SC0232], 3120 nM.
